# Experimental data: patent publication US20170000784A1, “Autophagy Inhibitors” (priority 2013, published 2017)
# Where two headings read alike, the source gives them in different places.
# Experiments:
# Type in all cases: cell-based
# U2OS cells = test: Cell viability (IC50) screen, CellTiter Glo, U2OS; conditions: for IC50: U2OS cell viability, CellTiter Glo, 48 hours
# Protocol: (§1) U2OS cells were seeded at 500 cells per well in 5A McCoy's with 10% FBS in 96-well clear bottom, black-walled tissue culture plates. All melanoma cell lines (A375, UACC-91, UACC-257, UACC-502, UACC-903, UACC-1308, UACC-1940, UACC-2534, and UACC-3291) were seeded at 5,000 cells per well in RPMI 1640 with 10% FBS in 96-well clear bottom, black-walled tissue culture plates. After 24 hour incubation, cells were treated with VATG compounds in triplicate with a 10-point half log dose response from […] for 24 and 48 hours. Medium was removed and 2× CellTiter Glo (Promega, G7571) reagent mixed 1:1 with Opti-MEM (Invitrogen, 31985062) was added at 100 μL per well and incubated at room temperature for 15 minutes while rocking. 75 μL per well was moved to a white-walled 96-well plate and luminescence quantified using the 96 LUM program on an EnVision plate reader (PerkinElmer) and exported for analysis. All triplicate data points were averaged and luminescent readings for each treatment were normalized to vehicle control for change in viability. Dose response curves were input into SigmaPlot for IC50 calculations (Systat Software Inc).
# [1] = test system: UACC-257 melanoma cell line; test: Cell viability (IC50) screen, CellTiter Glo, UACC-257; conditions: Homo sapiens
# Protocol: as §1
# [2] = test system: UACC-502 melanoma cell line; test: Cell viability (IC50) screen, CellTiter Glo, UACC-502; conditions: Homo sapiens
# Protocol: as §1
# [3] = test system: UACC-903 melanoma cell line; test: Cell viability (IC50) screen, CellTiter Glo, UACC-903; conditions: Homo sapiens
# Protocol: as §1
# [4] = test system: UACC-1308 melanoma cell line; test: Cell viability (IC50) screen, CellTiter Glo, UACC-1308; conditions: Homo sapiens
# Protocol: as §1
# [5] = test system: UACC-1940 melanoma cell line; test: Cell viability (IC50) screen, CellTiter Glo, UACC-1940; conditions: Homo sapiens
# Protocol: as §1
# [6] = test system: UACC-2534 melanoma cell line; test: Cell viability (IC50) screen, CellTiter Glo, UACC-2534; conditions: Homo sapiens
# Protocol: as §1
# [7] = test system: nine melanoma cell lines (A375, UACC-91, UACC-257, UACC-502, UACC-903, UACC-1308, UACC-1940, UACC-2534, UACC-3291); test: Cell viability (IC50) screen, panel of nine melanoma cell lines; conditions: Homo sapiens, read-out: IC50 values, range over the melanoma cell lines
# Protocol: as §1
# Next, the sensitivity of each melanoma cell line to CQ, QN, Example 7, and Example 27 was assessed.
# [8] = test system: lysosomal protease cathepsin B in U2OS cells; test: Immunoblot of active cathepsin B; conditions: 3 μM and 30 μM for 6 hours; effects stated at 30 μM (CQ: at either dose)
# Protocol: For Western blotting, U2OS cells were seeded in 10 cm plates in 5A McCoy's with 10% FBS at 1×10^6 cells per plate. All melanoma lines were seeded in 10 cm plates in RPMI 1640 with 10% FBS at 1×10^6 cells per plate. After 24 hours, cells were treated with CQ, QN, Example 27, or Example 7 in a dose response of 0.3 μM, 1 μM, 3 μM, 10 μM, and 30 μM for three hours. A375 were treated with PLX-4032 (Selleck Chemicals, S1267) at 10 nM, 100 nM, and 1 μM for three hours with and without CQ, QN, Example 7, and Example 27 at 3 μM and 30 μM. After treatment, cells were lysed [10 mM KPO4, 1 mM EDTA, 10 mM MgCl2, 5 mM EGTA, 50 mM bis-glycerophosphate, 0.5% NP40, 0.1% Brij35, 0.1% sodium deoxycholate, 1 mM NaVO4, 5 mM NaF, 2 mM DTT, and complete protease inhibitors (Sigma, P8340-5 mL)] and 50 μg of protein was resolved by SDS-PAGE. Proteins were transferred to PVDF membranes and probed with primary antibodies [LC3 (Sigma, L7543-200UL), anti-α-tubulin (Sigma, T6199), cathepsin B (Santa Cruz, sc-13985)] for 16 hours at 4° C. followed by a secondary antibody [HRP-linked rabbit or mouse IgG (GE Healthcare, NA934 or NA931) or Odyssey IRDye 680CW Goat anti-rabbit IgG (LI-COR, 926-32221) or IRDye 800CW Goat anti-mouse IgG (LI-COR, 926-32210)] for 1 hour at room temperature. Proteins were detected with enhanced chemiluminescence or using the Odyssey machine and quantified (FIGS. 12, 15, 16, 7 and 11).
# Deacidification of lysosomes would be expected to not only prevent the maturation and turnover of the lysosomes from early to late, but also affect the functionality of lysosomal enzymes and consequently the turnover of lysosomal constituents. To determine if lysosomal activity was inhibited, lysosomal protease cathepsin B activity was measured by immunoblotting (FIG. 12C). Lysates were harvested from cells and treated with CQ, QN, Example 7, and Example 27 at both 3 μM and 30 μM for 6 hours.
# [9] = U2OS IC50 relative to quinacrine
# [10] = UACC-257 cell viability, CellTiter Glo, read-out: IC50
# [11] = UACC-502 cell viability, CellTiter Glo, read-out: IC50
# [12] = UACC-903 cell viability, CellTiter Glo, read-out: IC50
# [13] = UACC-1308 cell viability, CellTiter Glo, read-out: IC50
# [14] = UACC-1940 cell viability, CellTiter Glo, read-out: IC50
# [15] = UACC-2534 cell viability, CellTiter Glo, read-out: IC50
# [16] = cell viability, nine melanoma cell lines
SMILES,fold more cytotoxic than QN (U2OS cells; [9]),IC50 (U2OS cells; read-out: IC50) [µM],"IC50 [1, 10] [µM]","IC50 [2, 11] [µM]","IC50 [3, 12] [µM]","IC50 [4, 13] [µM]","IC50 [5, 14] [µM]","IC50 [6, 15] [µM]","IC50 [7, 16] [µM]",active cathepsin B [8],"IC50 (U2OS cells; Homo sapiens, U2OS, 48 h, read-out: IC50) [µM]",times less cytotoxic than QN (U2OS cells; [9]),IC50 (U2OS cells) [µM],IC50 ([1]; UACC-257) [µM],IC50 [2] [µM],IC50 ([3]; UACC-903) [µM],IC50 [4] [µM],IC50 [5] [µM],IC50 [6] [µM],IC50 [7] [µM]
"COc1ccc2nc3cc(Cl)ccc3c(NCCCCN3CCN(C)CC3)c2c1 [Example 7, 6-Chloro-2-methoxy-N-(4-(4-methylpiperazin-1-yl)butyl)acridin-9-amine]",3.5,0.7,2,1.8,1.5,2.1,4,2.7,0.4 to 2.7,nearly complete loss,–,–,–,–,–,–,–,–,–,–
"CCN(CC)CCCC(C)Nc1c2ccc(Cl)cc2nc2ccc(OC)cc12 (centres unmarked) [Quinacrine, quinacrine, reference compound]",–,–,3,2.2,2.7,3.9,1.9,2.2,1.9 to 3.9,nearly complete loss,2.5,–,–,–,–,–,–,–,–,–
"CN1CCN(CCNc2c3c(nc4cc(Cl)ccc24)CCCC3)CC1 [Example 27, 6-Chloro-N-(2-(4-methylpiperazin-1-yl)ethyl)-1,2,3,4-tetrahydroacridin-9-amine]",–,–,–,–,–,–,–,–,–,significant decrease,–,10,27,25.3,42.3,27.2,14.9,21.6,26.6,15 to 42
